In the supplement of paper PMC4862054:

system: BT-474; assay: drug sensitivity score (DSS), CellTiter-Glo (DSS (AUC-based score)); higher = stronger drug effect (viability inhibition or cytotoxicity); extreme values may be limits of the assay; conditions: incubation time: 72 h
In short: (§1)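 Compound was dispensed into 384-well plates at 5 concentrations in 10-fold steps spanning a 10,000-fold range chosen for each compound, and 20 µl of breast cancer cell suspension was added before 72 h of incubation. CellTox Green fluorescence was read at 485/520 nm, followed by CellTiter-Glo luminescence after 10 min at room temperature. Values on each plate were normalised to 0.1 % DMSO and a positive kill control. The drug sensitivity score came from the area under the fitted dose-response curve.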

SMILES	drug sensitivity score
CNC(=O)c1cc(Oc2ccc(NC(=O)Nc3ccc(Cl)c(C(F)(F)F)c3)cc2)ccn1 [Sorafenib]	0
CCN(CC)CCNC(=O)c1c(C)[nH]c(/C=C2\C(=O)Nc3ccc(F)cc32)c1C [Sunitinib]	0
CC[C@@]1(O)C(=O)OCc2c1cc1n(c2=O)Cc2cc3c(CN(C)C)c(O)ccc3nc2-1 [Topotecan]	3.82

system: BT-549; assay: as above; conditions: incubation time: 72 h
In short: as §1

SMILES	drug sensitivity score
CNC(=O)c1cc(Oc2ccc(NC(=O)Nc3ccc(Cl)c(C(F)(F)F)c3)cc2)ccn1 [Sorafenib]	0
CCN(CC)CCNC(=O)c1c(C)[nH]c(/C=C2\C(=O)Nc3ccc(F)cc32)c1C [Sunitinib]	0
CC[C@@]1(O)C(=O)OCc2c1cc1n(c2=O)Cc2cc3c(CN(C)C)c(O)ccc3nc2-1 [Topotecan]	10.8

system: CAL-120; assay: as above; conditions: incubation time: 72 h
In short: as §1

SMILES	drug sensitivity score
CNC(=O)c1cc(Oc2ccc(NC(=O)Nc3ccc(Cl)c(C(F)(F)F)c3)cc2)ccn1 [Sorafenib]	0
CCN(CC)CCNC(=O)c1c(C)[nH]c(/C=C2\C(=O)Nc3ccc(F)cc32)c1C [Sunitinib]	0
CC[C@@]1(O)C(=O)OCc2c1cc1n(c2=O)Cc2cc3c(CN(C)C)c(O)ccc3nc2-1 [Topotecan]	5.11

system: CAL-148; assay: as above; conditions: incubation time: 72 h
In short: as §1

SMILES	drug sensitivity score
CNC(=O)c1cc(Oc2ccc(NC(=O)Nc3ccc(Cl)c(C(F)(F)F)c3)cc2)ccn1 [Sorafenib]	0
CCN(CC)CCNC(=O)c1c(C)[nH]c(/C=C2\C(=O)Nc3ccc(F)cc32)c1C [Sunitinib]	0
CC[C@@]1(O)C(=O)OCc2c1cc1n(c2=O)Cc2cc3c(CN(C)C)c(O)ccc3nc2-1 [Topotecan]	18.7

system: CAL-51; assay: as above; conditions: incubation time: 72 h
In short: as §1

SMILES	drug sensitivity score
CNC(=O)c1cc(Oc2ccc(NC(=O)Nc3ccc(Cl)c(C(F)(F)F)c3)cc2)ccn1 [Sorafenib]	0
CCN(CC)CCNC(=O)c1c(C)[nH]c(/C=C2\C(=O)Nc3ccc(F)cc32)c1C [Sunitinib]	0
CC[C@@]1(O)C(=O)OCc2c1cc1n(c2=O)Cc2cc3c(CN(C)C)c(O)ccc3nc2-1 [Topotecan]	11

system: DU-4475; assay: as above; conditions: incubation time: 72 h
In short: as §1

SMILES	drug sensitivity score
CNC(=O)c1cc(Oc2ccc(NC(=O)Nc3ccc(Cl)c(C(F)(F)F)c3)cc2)ccn1 [Sorafenib]	0
CCN(CC)CCNC(=O)c1c(C)[nH]c(/C=C2\C(=O)Nc3ccc(F)cc32)c1C [Sunitinib]	0
CC[C@@]1(O)C(=O)OCc2c1cc1n(c2=O)Cc2cc3c(CN(C)C)c(O)ccc3nc2-1 [Topotecan]	14.6

system: HCC1143; assay: as above; conditions: incubation time: 72 h
In short: as §1

SMILES	drug sensitivity score
CNC(=O)c1cc(Oc2ccc(NC(=O)Nc3ccc(Cl)c(C(F)(F)F)c3)cc2)ccn1 [Sorafenib]	0
CCN(CC)CCNC(=O)c1c(C)[nH]c(/C=C2\C(=O)Nc3ccc(F)cc32)c1C [Sunitinib]	0
CC[C@@]1(O)C(=O)OCc2c1cc1n(c2=O)Cc2cc3c(CN(C)C)c(O)ccc3nc2-1 [Topotecan]	9.67

system: HCC1599; assay: as above; conditions: incubation time: 72 h
In short: as §1

SMILES	drug sensitivity score
CNC(=O)c1cc(Oc2ccc(NC(=O)Nc3ccc(Cl)c(C(F)(F)F)c3)cc2)ccn1 [Sorafenib]	0
CCN(CC)CCNC(=O)c1c(C)[nH]c(/C=C2\C(=O)Nc3ccc(F)cc32)c1C [Sunitinib]	0
CC[C@@]1(O)C(=O)OCc2c1cc1n(c2=O)Cc2cc3c(CN(C)C)c(O)ccc3nc2-1 [Topotecan]	18.3

system: HCC1937; assay: as above; conditions: incubation time: 72 h
In short: as §1

SMILES	drug sensitivity score
CNC(=O)c1cc(Oc2ccc(NC(=O)Nc3ccc(Cl)c(C(F)(F)F)c3)cc2)ccn1 [Sorafenib]	0
CCN(CC)CCNC(=O)c1c(C)[nH]c(/C=C2\C(=O)Nc3ccc(F)cc32)c1C [Sunitinib]	0
CC[C@@]1(O)C(=O)OCc2c1cc1n(c2=O)Cc2cc3c(CN(C)C)c(O)ccc3nc2-1 [Topotecan]	6.32

system: HDQ-P1; assay: as above; conditions: incubation time: 72 h
In short: as §1

SMILES	drug sensitivity score
CNC(=O)c1cc(Oc2ccc(NC(=O)Nc3ccc(Cl)c(C(F)(F)F)c3)cc2)ccn1 [Sorafenib]	0
CCN(CC)CCNC(=O)c1c(C)[nH]c(/C=C2\C(=O)Nc3ccc(F)cc32)c1C [Sunitinib]	0
CC[C@@]1(O)C(=O)OCc2c1cc1n(c2=O)Cc2cc3c(CN(C)C)c(O)ccc3nc2-1 [Topotecan]	0

system: Hs578T; assay: as above; conditions: incubation time: 72 h
In short: as §1

SMILES	drug sensitivity score
CNC(=O)c1cc(Oc2ccc(NC(=O)Nc3ccc(Cl)c(C(F)(F)F)c3)cc2)ccn1 [Sorafenib]	0
CCN(CC)CCNC(=O)c1c(C)[nH]c(/C=C2\C(=O)Nc3ccc(F)cc32)c1C [Sunitinib]	0
CC[C@@]1(O)C(=O)OCc2c1cc1n(c2=O)Cc2cc3c(CN(C)C)c(O)ccc3nc2-1 [Topotecan]	1.55

system: MCF-10A; assay: as above; conditions: incubation time: 72 h
In short: as §1

SMILES	drug sensitivity score
CNC(=O)c1cc(Oc2ccc(NC(=O)Nc3ccc(Cl)c(C(F)(F)F)c3)cc2)ccn1 [Sorafenib]	0
CCN(CC)CCNC(=O)c1c(C)[nH]c(/C=C2\C(=O)Nc3ccc(F)cc32)c1C [Sunitinib]	0
CC[C@@]1(O)C(=O)OCc2c1cc1n(c2=O)Cc2cc3c(CN(C)C)c(O)ccc3nc2-1 [Topotecan]	4.97

system: MDA-MB-231; assay: as above; conditions: incubation time: 72 h
In short: as §1

SMILES	drug sensitivity score
CNC(=O)c1cc(Oc2ccc(NC(=O)Nc3ccc(Cl)c(C(F)(F)F)c3)cc2)ccn1 [Sorafenib]	0
CCN(CC)CCNC(=O)c1c(C)[nH]c(/C=C2\C(=O)Nc3ccc(F)cc32)c1C [Sunitinib]	0
CC[C@@]1(O)C(=O)OCc2c1cc1n(c2=O)Cc2cc3c(CN(C)C)c(O)ccc3nc2-1 [Topotecan]	4.13

system: MDA-MB-436; assay: as above; conditions: incubation time: 72 h
In short: as §1

SMILES	drug sensitivity score
CNC(=O)c1cc(Oc2ccc(NC(=O)Nc3ccc(Cl)c(C(F)(F)F)c3)cc2)ccn1 [Sorafenib]	0
CCN(CC)CCNC(=O)c1c(C)[nH]c(/C=C2\C(=O)Nc3ccc(F)cc32)c1C [Sunitinib]	0
CC[C@@]1(O)C(=O)OCc2c1cc1n(c2=O)Cc2cc3c(CN(C)C)c(O)ccc3nc2-1 [Topotecan]	13.6

system: MDA-MB-453; assay: as above; conditions: incubation time: 72 h
In short: as §1

SMILES	drug sensitivity score
CNC(=O)c1cc(Oc2ccc(NC(=O)Nc3ccc(Cl)c(C(F)(F)F)c3)cc2)ccn1 [Sorafenib]	0
CCN(CC)CCNC(=O)c1c(C)[nH]c(/C=C2\C(=O)Nc3ccc(F)cc32)c1C [Sunitinib]	0
CC[C@@]1(O)C(=O)OCc2c1cc1n(c2=O)Cc2cc3c(CN(C)C)c(O)ccc3nc2-1 [Topotecan]	5.74

system: MDA-MB-468; assay: as above; conditions: incubation time: 72 h
In short: as §1

SMILES	drug sensitivity score
CNC(=O)c1cc(Oc2ccc(NC(=O)Nc3ccc(Cl)c(C(F)(F)F)c3)cc2)ccn1 [Sorafenib]	0
CCN(CC)CCNC(=O)c1c(C)[nH]c(/C=C2\C(=O)Nc3ccc(F)cc32)c1C [Sunitinib]	0
CC[C@@]1(O)C(=O)OCc2c1cc1n(c2=O)Cc2cc3c(CN(C)C)c(O)ccc3nc2-1 [Topotecan]	20.8

system: MFM-223; assay: as above; conditions: incubation time: 72 h
In short: as §1

SMILES	drug sensitivity score
CNC(=O)c1cc(Oc2ccc(NC(=O)Nc3ccc(Cl)c(C(F)(F)F)c3)cc2)ccn1 [Sorafenib]	0
CCN(CC)CCNC(=O)c1c(C)[nH]c(/C=C2\C(=O)Nc3ccc(F)cc32)c1C [Sunitinib]	0
CC[C@@]1(O)C(=O)OCc2c1cc1n(c2=O)Cc2cc3c(CN(C)C)c(O)ccc3nc2-1 [Topotecan]	0

system: SK-BR-3; assay: as above; conditions: incubation time: 72 h
In short: as §1

SMILES	drug sensitivity score
CNC(=O)c1cc(Oc2ccc(NC(=O)Nc3ccc(Cl)c(C(F)(F)F)c3)cc2)ccn1 [Sorafenib]	0
CCN(CC)CCNC(=O)c1c(C)[nH]c(/C=C2\C(=O)Nc3ccc(F)cc32)c1C [Sunitinib]	0
CC[C@@]1(O)C(=O)OCc2c1cc1n(c2=O)Cc2cc3c(CN(C)C)c(O)ccc3nc2-1 [Topotecan]	14.1

system: BT-474; assay: drug sensitivity score (DSS), CellTox Green (DSS (AUC-based score)); higher = stronger drug effect (viability inhibition or cytotoxicity); extreme values may be limits of the assay; conditions: incubation time: 72 h
In short: as §1

SMILES	drug sensitivity score
CNC(=O)c1cc(Oc2ccc(NC(=O)Nc3ccc(Cl)c(C(F)(F)F)c3)cc2)ccn1 [Sorafenib]	0
CCN(CC)CCNC(=O)c1c(C)[nH]c(/C=C2\C(=O)Nc3ccc(F)cc32)c1C [Sunitinib]	0
CC[C@@]1(O)C(=O)OCc2c1cc1n(c2=O)Cc2cc3c(CN(C)C)c(O)ccc3nc2-1 [Topotecan]	0.158

system: CAL-120; assay: as above; conditions: incubation time: 72 h
In short: as §1

SMILES	drug sensitivity score
CNC(=O)c1cc(Oc2ccc(NC(=O)Nc3ccc(Cl)c(C(F)(F)F)c3)cc2)ccn1 [Sorafenib]	0
CCN(CC)CCNC(=O)c1c(C)[nH]c(/C=C2\C(=O)Nc3ccc(F)cc32)c1C [Sunitinib]	0
CC[C@@]1(O)C(=O)OCc2c1cc1n(c2=O)Cc2cc3c(CN(C)C)c(O)ccc3nc2-1 [Topotecan]	3.76

system: CAL-148; assay: as above; conditions: incubation time: 72 h
In short: as §1

SMILES	drug sensitivity score
CNC(=O)c1cc(Oc2ccc(NC(=O)Nc3ccc(Cl)c(C(F)(F)F)c3)cc2)ccn1 [Sorafenib]	0
CCN(CC)CCNC(=O)c1c(C)[nH]c(/C=C2\C(=O)Nc3ccc(F)cc32)c1C [Sunitinib]	0
CC[C@@]1(O)C(=O)OCc2c1cc1n(c2=O)Cc2cc3c(CN(C)C)c(O)ccc3nc2-1 [Topotecan]	24.6

system: CAL-51; assay: as above; conditions: incubation time: 72 h
In short: as §1

SMILES	drug sensitivity score
CNC(=O)c1cc(Oc2ccc(NC(=O)Nc3ccc(Cl)c(C(F)(F)F)c3)cc2)ccn1 [Sorafenib]	0
CCN(CC)CCNC(=O)c1c(C)[nH]c(/C=C2\C(=O)Nc3ccc(F)cc32)c1C [Sunitinib]	0
CC[C@@]1(O)C(=O)OCc2c1cc1n(c2=O)Cc2cc3c(CN(C)C)c(O)ccc3nc2-1 [Topotecan]	19.5

system: HCC1143; assay: as above; conditions: incubation time: 72 h
In short: as §1

SMILES	drug sensitivity score
CNC(=O)c1cc(Oc2ccc(NC(=O)Nc3ccc(Cl)c(C(F)(F)F)c3)cc2)ccn1 [Sorafenib]	0
CCN(CC)CCNC(=O)c1c(C)[nH]c(/C=C2\C(=O)Nc3ccc(F)cc32)c1C [Sunitinib]	0
CC[C@@]1(O)C(=O)OCc2c1cc1n(c2=O)Cc2cc3c(CN(C)C)c(O)ccc3nc2-1 [Topotecan]	0

system: HCC1937; assay: as above; conditions: incubation time: 72 h
In short: as §1

SMILES	drug sensitivity score
CNC(=O)c1cc(Oc2ccc(NC(=O)Nc3ccc(Cl)c(C(F)(F)F)c3)cc2)ccn1 [Sorafenib]	0
CCN(CC)CCNC(=O)c1c(C)[nH]c(/C=C2\C(=O)Nc3ccc(F)cc32)c1C [Sunitinib]	0
CC[C@@]1(O)C(=O)OCc2c1cc1n(c2=O)Cc2cc3c(CN(C)C)c(O)ccc3nc2-1 [Topotecan]	3.78

system: HDQ-P1; assay: as above; conditions: incubation time: 72 h
In short: as §1

SMILES	drug sensitivity score
CNC(=O)c1cc(Oc2ccc(NC(=O)Nc3ccc(Cl)c(C(F)(F)F)c3)cc2)ccn1 [Sorafenib]	0
CCN(CC)CCNC(=O)c1c(C)[nH]c(/C=C2\C(=O)Nc3ccc(F)cc32)c1C [Sunitinib]	0
CC[C@@]1(O)C(=O)OCc2c1cc1n(c2=O)Cc2cc3c(CN(C)C)c(O)ccc3nc2-1 [Topotecan]	0.486

system: MCF-10A; assay: as above; conditions: incubation time: 72 h
In short: as §1

SMILES	drug sensitivity score
CNC(=O)c1cc(Oc2ccc(NC(=O)Nc3ccc(Cl)c(C(F)(F)F)c3)cc2)ccn1 [Sorafenib]	0
CCN(CC)CCNC(=O)c1c(C)[nH]c(/C=C2\C(=O)Nc3ccc(F)cc32)c1C [Sunitinib]	0
CC[C@@]1(O)C(=O)OCc2c1cc1n(c2=O)Cc2cc3c(CN(C)C)c(O)ccc3nc2-1 [Topotecan]	1.98

system: MDA-MB-436; assay: as above; conditions: incubation time: 72 h
In short: as §1

SMILES	drug sensitivity score
CNC(=O)c1cc(Oc2ccc(NC(=O)Nc3ccc(Cl)c(C(F)(F)F)c3)cc2)ccn1 [Sorafenib]	0
CCN(CC)CCNC(=O)c1c(C)[nH]c(/C=C2\C(=O)Nc3ccc(F)cc32)c1C [Sunitinib]	0
CC[C@@]1(O)C(=O)OCc2c1cc1n(c2=O)Cc2cc3c(CN(C)C)c(O)ccc3nc2-1 [Topotecan]	8.04
